According to patent publication US20210179577A1, “AROMATIC SULFONAMIDE DERIVATIVES FOR THE TREATMENT OF ISCHEMIC STROKE” (Bayer Aktiengesellschaft, priority 2017, published 2021):

Assays:
Type in all cases: cell-based
hP2X4 = target: T1, hP2X4 (Homo sapiens, UniProt Q99571); test: Human P2X4 HEK Cell Electrophysiology Assay B (QPatch); settings: ATP 5 microM, -90 mV; read-out: Human P2X4 HEK Cells (QPatch Electrophysiology) avg IC50
T1 construct: expressed in transfected cells; host or cells: HEK-293 mito-Photina, clone 2a/4
T1 sequence (Q99571 1-388): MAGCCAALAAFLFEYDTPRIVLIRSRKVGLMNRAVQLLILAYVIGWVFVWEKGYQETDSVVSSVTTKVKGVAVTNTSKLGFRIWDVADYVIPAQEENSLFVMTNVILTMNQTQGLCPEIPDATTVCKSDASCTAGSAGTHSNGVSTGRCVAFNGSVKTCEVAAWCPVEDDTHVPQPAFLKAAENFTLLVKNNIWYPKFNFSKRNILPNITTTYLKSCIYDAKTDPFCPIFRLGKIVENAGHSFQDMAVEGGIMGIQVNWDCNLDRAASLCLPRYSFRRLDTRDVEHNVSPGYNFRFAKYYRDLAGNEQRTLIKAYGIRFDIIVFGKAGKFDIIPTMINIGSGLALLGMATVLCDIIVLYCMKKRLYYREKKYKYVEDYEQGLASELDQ
Experimental: Cell culture conditions: HEK-293 mito-Photina pcDNA3(neo-)/pPURO N/pcDNA3_P2RX4, clone 2a/4 (HEK-293 mito-Photina/hP2RX4) cells were cultured in EMEM Minimum Essential Medium Eagle with Earl's salts Balanced Salt Solution (BioWhittaker cat. BE12-125F) supplemented with 5 mL of 200 mM Ultraglutaminel (BioWhittaker cat. BE17-605E/U1), 5 mL of 100× Penicillin/Streptomycin (BioWhittaker cat. DE17-602E; final concentration 1%), 4 mL of 50 mg/mL G418 (Sigma cat. G8168-100 mL; final concentration 400 μg/mL), 10 μL of 10 mg/mL Puromicin (InvivoGen cat. ant-pr-1; final concentration 0.2 μg/mL) and 50 mL of Fetal Bovine Serum (Sigma cat. F7524; final concentration 10%).
Experimentalprotocol: HEK-293 cell lines are seeded 72 or 96 hours before experiment, at a concentration of 5 or 2.5 million cells, respectively onto a T225 flask. Just before the experiments cells are washed twice with D-PBS w/o Ca2+/Mg2+(Euroclone cat. ECB4004L) and detached from the flask with trypsin-EDTA (Sigma, cat. T4174 diluted 1/10). Cells are then re-suspended in the suspension solution: 25 mL EX-CELL ACF CHO medium (Sigma, cat. C5467); 0.625 mL HEPES (BioWhittaker, cat. BE17-737E); 0.25 mL of 100× Penicillin/Streptomycin (BioWhittaker, cat. DE17-602E), 0.1 mL of Soybean Trypsin Inhibitor 10 mg/mL (Sigma, cat. T6522) and placed on the QPatch 16X.
Compound preparation and storage: Compound stock solutions (10 mM; 100% DMSO; stored at −20° C.) were used. Fresh solutions from stock (1 or 3 mM, 100% DMSO) were prepared just before the experiments (0.1% final DMSO concentration).
Patch clamp analysis with QPatch16X (FIG. 1): Standard whole-cell voltage clamp experiments are performed at room temperature using the multihole technology.
For the voltage clamp experiments on hP2X4, data are sampled at 2 KHz. After establishment of the seal and the passage in the whole cell configuration, the cells are held at −90 mV and the hP2X4 current is evoked by the agonist in the absence (vehicle period, i.e. 0.1% DMSO) or in the presence of the compound under investigation at increasing concentrations; see the application protocol in FIG. 1.
Output: the maximum inward current induced by the agonist (ATP 5 microM).
The intracellular solution contained (mM) 135 CsF, 10 NaCl, 1 EGTA, 10 HEPES (pH 7.2 with CsOH) whereas the extracellular solution (mM) 145 NaCl, 4 KCl, 0.5 MgCl2, 1 CaCl2, […], 10 Glucose (pH 7.4 with NaOH).
For data collection, the Sophion software was used and the analysis was performed off-line using Excel and GraphPad Prism.
When possible, i.e. when the % of inhibition with the highest concentration tested was more than 50%, the dose-response curves data were fitted with the following equation:
[X is log of concentration; Y is normalized response (100% down to 0%, decreasing as X increases); Log IC50 same log units as X; HillSlope is unitless slope factor or hill slope]

human P2X4 [1] = target: T2, human P2X4 (Homo sapiens, UniProt Q99571); test: Human P2X4 HEK Cell FLIPR Assay; design: expressed in transfected cells; host or cells: HEK293; settings: HEK293 cells, agonist Bz-ATP at EC80
T2 sequence (Q99571 1-388): T1 sequence (Q99571 1-388)
Experimental: HEK293 cells stably expressing human P2X4 were plated in poly-D-lysine-coated 384-well plates at a seeding density of 30000 cells/well and incubated overnight. P2X4 function was assessed by measuring intracellular calcium changes using the calcium-chelating dye Fluo8-AM (Molecular Devices) on a fluorescent imaging plate reader (FLEX/FLIPR station; Molecular Devices). On the day of the assay, the medium was removed and the cells were incubated for 30 min at 37° C. and 5% CO2 in 30 μL of dye buffer (Hank's balanced salt solution, 10 mM HEPES, 1.8 mM CaCl2, 1 mM MgCl2, 2 mM probenecid, 5 mM D-glucose monohydrate, 5 μM Fluo8-AM, pH=7.4). Compounds diluted in probenecid buffer (Hank's balanced salt solution, 10 mM HEPES, 1.8 mM CaCl2, 1 mM MgCl2, 2 mM probenecid, 5 mM D-glucose monohydrate, pH=7.4) were added in a volume of 10 μL and allowed to incubate for 30 min at room temperature. The final assay DMSO concentration was 0.5%. The agonist, Bz-ATP (Tocris), was added in a volume of 10 μL at a concentration representing the EC80 value. The EC80 value of Bz-ATP was determined each assay day prior to compound profiling. The fluorescence was measured for an interval of 120 sec at 2 sec intervals. The excitation and emission wavelengths used to monitor fluorescence were 470-495 nm and 515-575 nm, respectively. The data was analyzed based on the increase in peak relative fluorescence units (RFU) compared to the basal fluorescence and the data was normalized to the agonist control. The compounds were tested in triplicates per plate and mean values were plotted in Excel XL-Fit to determine IC50 values, percentage of maximal inhibition and the Hill coefficients.

mouse P2X4 = target: T3, mouse P2X4 (Mus musculus, UniProt Q9JJX6); test: FLIPR assay, mouse P2X4 1321N1 Astrocytoma Cells; settings: 1321N1 Astrocytoma cells
T3 construct: expressed in transfected cells; host or cells: 1321N1 astrocytoma cells
T3 sequence (Q9JJX6 1-388): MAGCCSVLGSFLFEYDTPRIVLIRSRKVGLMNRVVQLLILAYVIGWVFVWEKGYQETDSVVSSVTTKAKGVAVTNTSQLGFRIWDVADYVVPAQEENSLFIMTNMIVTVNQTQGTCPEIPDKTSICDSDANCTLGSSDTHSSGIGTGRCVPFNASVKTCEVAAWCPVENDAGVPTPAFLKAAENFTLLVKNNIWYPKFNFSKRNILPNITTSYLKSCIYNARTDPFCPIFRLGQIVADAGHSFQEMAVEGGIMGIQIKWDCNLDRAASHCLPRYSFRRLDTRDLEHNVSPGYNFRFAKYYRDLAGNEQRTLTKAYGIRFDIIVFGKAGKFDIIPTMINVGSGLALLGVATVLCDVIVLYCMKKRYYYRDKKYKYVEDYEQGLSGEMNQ
Experimental: (§1) 1321N1 Astrocytoma cells stably expressing human P2X4 or rat P2X4 or mouse P2X4 were plated in Collagen ITO-treated microplate at a seeding density of 10000 cells/well and incubated overnight. P2X4 function was assessed by measuring intracellular calcium changes using the calcium-chelating dye Fluo8-AM (Molecular Devices) on a fluorescent imaging plate reader (FLEX/FLIPR station; Molecular Devices). On the day of the assay, the medium was removed and the cells were incubated for 30 min at […] and 5% CO2 in 30 μL of dye buffer (Hank's balanced salt solution, 10 mM HEPES, 1.8 mM CaCl2, 1 mM MgCl2, 2 mM probenecid, 5 mM D-glucose monohydrate, 5 μM Fluo8-AM, pH=7.4). Compounds diluted in probenecid buffer (Hank's balanced salt solution, 10 mM HEPES, 1.8 mM CaCl2, 1 mM MgCl2, 2 mM probenecid, 5 mM D-glucose monohydrate, pH=7.4) were added in a volume of 10 μL and allowed to incubate for 30 min at room temperature. The final assay DMSO concentration was 0.25%. The agonist, Mg-ATP (Sigma), was added in a volume of 10 μL at a concentration representing the EC80 value. EC80 was determined to be 0.5 μM for human and mouse P2X4 and 5 μM for rat P2X4. The fluorescence was measured for an interval of 120 sec at 2 sec intervals. The excitation and emission wavelengths used to monitor fluorescence were 470-495 nm and 515-575 nm, respectively. The data was analyzed based on the increase in peak relative fluorescence units (RFU) compared to the basal fluorescence and the data was normalized to the agonist control. The compounds were tested in triplicates per plate and mean values were plotted in Excel XLFit to determine IC50 values, percentage of maximal inhibition and the Hill coefficients.

rat P2X4 = target: T4, rat P2X4 (Rattus norvegicus, UniProt P51577); test: FLIPR assay, rat P2X4 1321N1 Astrocytoma Cells; settings: 1321N1 Astrocytoma cells
T4 construct: expressed in transfected cells; host or cells: 1321N1 astrocytoma cells
T4 sequence (P51577 1-388): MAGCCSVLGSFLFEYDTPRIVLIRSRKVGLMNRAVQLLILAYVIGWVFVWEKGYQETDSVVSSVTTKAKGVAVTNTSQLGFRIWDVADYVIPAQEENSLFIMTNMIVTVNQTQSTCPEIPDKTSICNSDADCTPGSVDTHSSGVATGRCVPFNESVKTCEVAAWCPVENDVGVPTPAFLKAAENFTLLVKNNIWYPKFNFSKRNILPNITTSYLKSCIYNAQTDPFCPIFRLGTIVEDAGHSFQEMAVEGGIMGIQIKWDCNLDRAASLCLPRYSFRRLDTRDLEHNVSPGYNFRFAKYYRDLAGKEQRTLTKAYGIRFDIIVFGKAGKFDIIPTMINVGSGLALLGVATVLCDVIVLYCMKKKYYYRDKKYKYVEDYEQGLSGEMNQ
Experimental: as §1

human P2X4 [2] = target: T2, human P2X4; test: FLIPR assay, human P2X4 1321N1 Astrocytoma Cells; design: expressed in transfected cells; settings: 1321N1 Astrocytoma cells
Experimental: as §1

Structure (SMILES)	IC50 (hP2X4) [µM]	IC50 (human P2X4 [1]) [µM]	EC80 of the agonist, mouse P2X4 (mouse P2X4) [µM]	EC80 of the agonist, rat P2X4 (rat P2X4) [µM]	EC80 of the agonist, human P2X4 (human P2X4 [2]) [µM]
Cn1cc(-c2ccc(NC(=O)Cc3ccccc3Cl)cc2S(N)(=O)=O)cn1 [Example 360, 2-(2-Chlorophenyl)-N-[4-(1-methyl-1H-pyrazol-4-yl)-3-sulfamoylphenyl]acetamide]	0.205	0.132			
NS(=O)(=O)c1cc(NC(=O)Cc2ccccc2F)cnc1-n1cc(C(F)(F)F)cn1 [Example 381, 2-(2-Fluorophenyl)-N-{5-sulfamoyl-6-[4-(trifluoromethyl)-1H-pyrazol-1-yl]pyridin-3-yl}acetamide]	2.58	1.24			
Nc1ncnc2c1ncn2[C@@H]1O[C@H](COP(=O)(O)OP(=O)([O-])OP(=O)([O-])O)[C@@H](O)[C@H]1O.[Mg+2] [Mg-ATP, reference compound]			0.5	5	0.5
